Laboratory results taken from patent US6682892B2, “Method for treating herpes viruses” (priority 2000, dated 2004).
Where two headings read alike, the source gives them in different places.

What was measured:
Assay type in all cases: cell-based
[1] = tested on: HCMV AD169-M1 (V823A, V824L); test: Plaque reduction assay, 4-oxo-DHQ resistant HCMV AD169-M1
Experimental: (§1) Antiviral activity of compounds against herpesviruses such as HSV-1, HSV-2, or HCMV can be measured using plaque reduction assays. 0.1 ml of media containing approximately 50 PFU of virus is added to each well of a 24-well cell culture dish containing a confluent monolayer of cells (Vero cells for HSV-1 and HSV-2, HFF cells for HCMV). Compounds are dissolved in 100% DMSO and diluted in 100% DMSO as 200× stocks of the desired final drug concentration. Typically 5-6 two-fold dilutions are prepared for each compound. Dilutions of compounds are then added to media containing 0.8% CMC resulting in a final 1× drug concentration. After the virus-infected cells have incubated for 1 h at 37° C., the virus innoculum is removed and 1 ml of media containing 0.8% CMC and the various concentrations of compound is added to each well of the dish. The dish is incubated at 37° C. for approximately 2-3 days (HSV-1 and HSV-2) or 6-9 days (HCMV) to allow sufficient growth of virus to form plaques in the cell monolayer. Plaques can be observed and counted microscopically or by staining the cells with 0.1% crystal violet in 20% ethanol. […] Antiviral activity of a compound is expressed as the concentration of compound predicted to reduce the number of plaques in a well by 50% (IC50). The IC50 values are calculated by plotting the per cent inhibition vs. concentration of compound using EXCEL software for linear regression.
A plasmid containing the wild-type HCMV polymerase gene is modified to contain the V823A or V823A and V824L mutations using a site-directed mutagenesis Kit (Stratagene Corp.) and following the manufactures's protocol. HFF cells are plated into T25 tissue culture flasks to achieve 80% confluency at the time of the transfection. Wild type HCMV AD 169 DNA and plasmid DNA containing the mutant HCMV polymerase gene are mixed at a ratio of 1:2 (2 ug of viral DNA to 4 ug of plasmid DNA). DNA's are transfected using superfect transfection reagent according to methods recommended by the manufacturer (Quiagen Inc.). Cells are harvested five days posttransfection, freeze-thawed to release virus and half of the sample is used to infect HFF cell monolayers. Cells are overlayed with media containing 20 uM 4-oxo-DHQ compound 2 (see FIG. 1). Serial passage is repeated seven times in the presence of 20 uM compound 2 and virus isolates are then plaque purified three times prior to preparation of viral stock.
In order to isolate an HCMV resistant mutant marker rescue experiments are done. Plasmids containing the mutant polymerase genes are transfected into HFF cells along with wild type HCMV AD169 DNA. The resulting virus is then serially passaged in the presence of 20 uM compound 1 (see FIG. 1). A 4-oxo-DHQ resistant virus is isolated from marker rescue studies done with the HCMV polymerase gene containing mutations that result in the V823A, V824L amino acid changes, but not with the gene containing V823A change alone.

HCMV AD169 = test: Plaque reduction assay, HCMV AD169
Experimental: as §1

HSV-1 KOS = test: Plaque reduction assay, HSV-1 KOS
Experimental: as §1
(§2) A panel of viruses consisting of four strains of HSV-1 (KOS, F, DJL, Patton) and three strains of HSV-2 (MS, 35D, 186) are tested in a plaque reduction assay against four different 4-oxo-DHQ compounds (#1, 2, 4, 5 as shown in FIG. 1), and one 4-oxo-DHTP compound (#3 as shown in FIG. 1) and against Acyclovir. The six drugs inhibited replication of the seven virus strains with IC50 values ranging from 2-10 μM (Table 1). In order to select for 4-oxo-DHQ resistant mutants, HSV-1 strains KOS, F, and DJL along with HSV-2 strains 186 and MS are serially passaged in the presence of 20 uM compound 1. Following the seventh passage, 4-oxo-DHQ resistant virus from each strain are plaque purified three times and high-titer stocks are made.

HSV-1 KOS-M1 (V823A) = test: Plaque reduction assay, 4-oxo-DHQ resistant HSV-1 KOS-M1
Experimental: as §1
(§3) Vero cells are plated out at a density of 3.5×10^5 cells per well in a six well tissue culture plate. Cells are infected with HSV-1 KOS at a multiplicity of infection (moi) of 0.1 pfu/cell and 1 h post infection the cells are overlayed with 3 ml media containing 20 uM of a 4-oxo-DHQ. Cultures are incubated for 20 h at 37° C., freeze/thawed to release cell-associated virus, and 0.1 ml of culture is used to infect a new monolayer of Vero cells (one passage). Serial passage is repeated seven times in the presence of 20 uM drug. Virus isolates are then plaque purified three times prior to preparation of stocks. 4-oxo-DHQ resistant HSV-1 and HSV-2 may also be selected by the marker transfer method described below using wild-type HSV DNA and the corresponding mutant HSV polymerase gene.
as §2

HSV-2 MS-M1 (V826A) = test: Plaque reduction assay, 4-oxo-DHQ resistant HSV-2 MS-M1
Experimental: as §1, §3, §2

HSV-2 MS = test: Plaque reduction assay, HSV-2 MS
Experimental: as §1, §2

HSV-2 35D = test: Plaque reduction assay, HSV-2 35D; settings: Table 1, plaque reduction, Vero cells
Experimental: as §1, §2

HSV-1 DJL = test: Plaque reduction assay, HSV-1 DJL; settings: Table 1, plaque reduction, Vero cells
Experimental: as §1, §2

HSV-1 F = test: Plaque reduction assay, HSV-1 F; settings: Table 1, plaque reduction, Vero cells
Experimental: as §1, §2

HSV-2 186 = test: Plaque reduction assay, HSV-2 186; settings: Table 1, plaque reduction, Vero cells
Experimental: as §1, §2

HSV-1 Patton = test: Plaque reduction assay, HSV-1 Patton; settings: Table 1, plaque reduction, Vero cells
Experimental: as §1, §2

[2] = Table 5, mutant selected for 4-oxo-DHQ resistance, read-out: Plaque Reduction Assay - IC50 (μM) HCMV AD169-M1
[3] = Table 5, wild type strain, read-out: Plaque Reduction Assay - IC50 (μM) HCMV AD169
[4] = Table 5, wild type strain, read-out: Plaque Reduction Assay - IC50 (μM) HSV-1 KOS
[5] = Table 5, mutant selected for 4-oxo-DHQ resistance, read-out: Plaque Reduction Assay - IC50 (μM) HSV-1 KOS-M1
[6] = Table 5, mutant selected for 4-oxo-DHQ resistance, read-out: Plaque Reduction Assay - IC50 (μM) HSV-2 MS-M1
[7] = Table 5, wild type strain, read-out: Plaque Reduction Assay - IC50 (μM) HSV-2 MS
[8] = Table 1, plaque reduction, Vero cells, read-out: IC50 (uM), HSV-1 KOS
[9] = Table 1, plaque reduction, Vero cells, read-out: IC50 (uM), HSV-2 MS

Compound | IC50 [1, 2] | IC50 (HCMV AD169; [3]) | IC50 (HSV-1 KOS; [4]) | IC50 (HSV-1 KOS-M1 (V823A); [5]) | IC50 (HSV-2 MS-M1 (V826A); [6]) | IC50 (HSV-2 MS; [7]) | IC50 (HSV-2 35D) | IC50 (HSV-1 DJL) | IC50 (HSV-1 F) | IC50 (HSV-1 KOS; [8]) | IC50 (HSV-2 186) | IC50 (HSV-1 Patton) | IC50 (HSV-2 MS; [9]) | also measured
CN(Cc1cc2c(=O)c(C(=O)NCc3ccc(Cl)cc3)cn(C)c2s1)CC(O)c1ccccc1 (racemic) [Compound 8] | 1.1 µM | < 0.1 µM | 5.1 µM | > 50 µM | > 50 µM | 2.3 µM |  |  |  |  |  |  |  | 
Nc1nc2c(ncn2COCCO)c(=O)[nH]1 [ACV, Acyclovir, reference compound] |  |  |  |  |  |  |  |  |  |  |  |  |  | IC50 (HSV-2 35D; Human alphaherpesvirus 2): 6 µM; IC50 (HSV-1 DJL; Human alphaherpesvirus 1): 1.8 µM; IC50 (HSV-1 F; Human alphaherpesvirus 1): 1.3 µM; IC50 (HSV-1 KOS; Human alphaherpesvirus 1, Table 1, plaque reduction, Vero cells, read-out: IC50 (uM), HSV-1 KOS): 3.6 µM; IC50 (HSV-1 KOS; Human alphaherpesvirus 1, Table 5, wild type strain, read-out: Plaque Reduction Assay - IC50 (μM) HSV-1 KOS): 3.9 µM; IC50 (HSV-2 186; Human alphaherpesvirus 2): > 10 µM; IC50 (HSV-1 KOS-M1 (V823A); Human alphaherpesvirus 1, read-out: Plaque Reduction Assay - IC50 (μM) HSV-1 KOS-M1): 4.4 µM; IC50 (HSV-1 Patton; Human alphaherpesvirus 1): 9.3 µM; IC50 (HSV-2 MS-M1 (V826A); Human alphaherpesvirus 2, read-out: Plaque Reduction Assay - IC50 (μM) HSV-2 MS-M1): 2.8 µM; IC50 (HSV-2 MS; Human alphaherpesvirus 2, Table 1, plaque reduction, Vero cells, read-out: IC50 (uM), HSV-2 MS): 10 µM; IC50 (HSV-2 MS; Human alphaherpesvirus 2, Table 5, wild type strain, read-out: Plaque Reduction Assay - IC50 (μM) HSV-2 MS): 2.4 µM
Nc1ccn([C@@H]2O[C@H](CO)[C@@H](O)[C@@H]2O)c(=O)n1 [AraC, Arabinosylcytidine, reference compound] |  |  | 0.2 µM |  | 0.1 µM | 0.2 µM |  |  |  |  |  |  |  | 
Cc1cn([C@@H]2O[C@H](CO)[C@@H](O)[C@@H]2O)c(=O)[nH]c1=O [AraT, Arabinosylthymine, reference compound] |  |  | 11.6 µM | 3.6 µM | 3.6 µM | 6.6 µM |  |  |  |  |  |  |  | 
Nc1ccn(C[C@@H](CO)OCP(=O)(O)O)c(=O)n1 [Cidofovir, reference compound] |  |  |  |  |  |  |  |  |  |  |  |  |  | IC50 ([1]; Human betaherpesvirus 5, AD169, read-out: HCMV AD169 - M1 IC50 (μM)): 0.6 µM; increase in IC50 / change in sensitivity, HCMV AD169-M1 ([1]; {}): < 2 fold; IC50 (HCMV AD169; Human betaherpesvirus 5, AD169, Table 4, plaque reduction, wild type, read-out: HCMV AD169 IC50): 0.3 µM; IC50 (HCMV AD169; Human betaherpesvirus 5, AD169, Table 5, wild type strain, read-out: Plaque Reduction Assay - IC50 (μM) HCMV AD169): 0.4 µM
Cn1cc(C(=O)NCc2ccc(Cl)cc2)c(=O)c2cc(CN3CCOCC3)ccc21 [Compound 2] | 4 µM | 0.4 µM | 3.3 µM | > 50 µM | > 50 µM | 1.3 µM | 5.4 µM | 2.6 µM | 2.3 µM | 3.8 µM | 2.3 µM | 5.3 µM | 2.5 µM | 
O=C(NCc1ccc(Cl)cc1)c1cn2c3c(cc(CN4CCOCC4)cc3c1=O)OCC2 [Compound 4] |  | 0.6 µM | 4.2 µM | > 50 µM | 28.4 µM | 2.1 µM | 3.2 µM | 2.2 µM | 2.1 µM | 3.2 µM | 2.3 µM | 4.3 µM | 2.5 µM | 
O=C(NCc1ccc(Cl)cc1)c1cn(N2CCOCC2)c2ccc(CN3CCOCC3)cc2c1=O [Compound 5] |  |  |  |  |  |  | 8.1 µM | 2.7 µM | 2.6 µM | 3.3 µM | 4.2 µM | 10 µM | 2.5 µM | 
O=C(NCc1ccc(Cl)cc1)c1cnc2c(F)cccc2c1O [Compound 6] | > 16 µM | 5.1 µM | 24.6 µM | > 50 µM | > 50 µM | 28.8 µM |  |  |  |  |  |  |  | 
O=C(NCc1ccc(Cl)cc1)c1cnc2ccc(CCCO)cc2c1O [Compound 7] | 3.4 µM | 0.3 µM | 6.5 µM | > 50 µM | 27.9 µM | 8.8 µM |  |  |  |  |  |  |  | 
